Reference: ChEMBL document CHEMBL5465560, “Selectivity Literature for EUbOPEN Chemogenomic Library” (2024)

What was measured:
[1] = target: T1, Dual specificity mitogen-activated protein kinase kinase 6 (Homo sapiens) (UniProt P52564); assay: Selectivity interaction (Kinase panel (Z-LYTE Assay)) EUB0001632a MAP2K6; conditions: at 10 µM
T1 sequence (whole entry): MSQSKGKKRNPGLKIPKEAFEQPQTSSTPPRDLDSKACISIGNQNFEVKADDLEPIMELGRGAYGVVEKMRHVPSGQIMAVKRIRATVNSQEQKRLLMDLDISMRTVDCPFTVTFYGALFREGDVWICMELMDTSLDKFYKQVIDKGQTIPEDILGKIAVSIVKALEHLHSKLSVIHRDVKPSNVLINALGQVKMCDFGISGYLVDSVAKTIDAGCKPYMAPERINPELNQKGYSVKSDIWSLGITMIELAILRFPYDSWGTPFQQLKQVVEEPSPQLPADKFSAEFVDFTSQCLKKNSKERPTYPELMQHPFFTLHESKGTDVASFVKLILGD

[2] = target: Serine/threonine-protein kinase PAK 3 (Homo sapiens) (UniProt O75914); assay: Selectivity interaction (Kinase panel (Invitrogen)) EUB0000639a PAK3; conditions: at 200 nM
Sequence of Serine/threonine-protein kinase PAK 3 (Homo sapiens) (O75914 whole entry, looked up): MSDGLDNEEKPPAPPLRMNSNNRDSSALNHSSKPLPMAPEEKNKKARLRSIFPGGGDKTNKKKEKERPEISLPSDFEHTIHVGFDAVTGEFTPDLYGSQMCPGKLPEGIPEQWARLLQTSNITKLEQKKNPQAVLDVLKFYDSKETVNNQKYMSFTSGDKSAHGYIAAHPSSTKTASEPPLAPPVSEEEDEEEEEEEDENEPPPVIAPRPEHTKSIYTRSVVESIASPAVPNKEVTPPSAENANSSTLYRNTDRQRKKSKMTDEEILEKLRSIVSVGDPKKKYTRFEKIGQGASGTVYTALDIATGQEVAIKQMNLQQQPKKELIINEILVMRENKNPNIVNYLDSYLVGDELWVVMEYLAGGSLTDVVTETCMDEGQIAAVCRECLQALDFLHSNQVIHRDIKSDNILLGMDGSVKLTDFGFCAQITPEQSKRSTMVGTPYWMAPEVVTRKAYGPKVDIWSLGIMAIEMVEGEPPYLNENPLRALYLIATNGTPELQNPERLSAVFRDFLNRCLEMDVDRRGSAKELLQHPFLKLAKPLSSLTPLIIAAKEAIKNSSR

[3] = target: Ribosomal protein S6 kinase alpha-5 (Homo sapiens) (UniProt O75582); assay: Selectivity interaction (KinomeScan (DiscoverX)) EUB0001049a RPS6KA5; conditions: at 1 µM
[4] = target: T2, Prostaglandin G/H synthase 2 (Homo sapiens) (UniProt P35354); assay: Selectivity interaction (Panel of non-epigenetic targets (kinases, GPCRs, ion channels, and transporters, Eurofins) ) EUB0000271b PTGS2; conditions: at 1 µM
T2 sequence (whole entry): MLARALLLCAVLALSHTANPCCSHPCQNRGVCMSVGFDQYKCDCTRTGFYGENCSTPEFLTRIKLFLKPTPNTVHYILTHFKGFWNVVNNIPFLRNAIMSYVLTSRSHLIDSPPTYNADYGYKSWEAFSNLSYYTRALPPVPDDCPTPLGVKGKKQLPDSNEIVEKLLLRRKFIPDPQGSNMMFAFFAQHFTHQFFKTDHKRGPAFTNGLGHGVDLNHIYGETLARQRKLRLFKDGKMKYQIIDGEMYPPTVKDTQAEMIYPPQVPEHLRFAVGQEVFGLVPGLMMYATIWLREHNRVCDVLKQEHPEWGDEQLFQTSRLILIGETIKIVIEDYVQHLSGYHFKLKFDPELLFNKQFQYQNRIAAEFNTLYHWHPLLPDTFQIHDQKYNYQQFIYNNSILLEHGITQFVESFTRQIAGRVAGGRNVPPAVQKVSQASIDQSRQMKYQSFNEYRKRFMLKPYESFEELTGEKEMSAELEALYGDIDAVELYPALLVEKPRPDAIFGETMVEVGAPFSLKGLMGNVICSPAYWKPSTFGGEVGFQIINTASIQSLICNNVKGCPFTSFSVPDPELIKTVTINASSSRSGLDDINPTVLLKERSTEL

[5] = target: Mitogen-activated protein kinase 7 (Homo sapiens) (UniProt Q13164); assay: Selectivity interaction (KinomeScan (DiscoverX)) EUB0000695a MAPK7; conditions: at 100 nM
Sequence of Mitogen-activated protein kinase 7 (Homo sapiens) (Q13164 2-816 limits assumed): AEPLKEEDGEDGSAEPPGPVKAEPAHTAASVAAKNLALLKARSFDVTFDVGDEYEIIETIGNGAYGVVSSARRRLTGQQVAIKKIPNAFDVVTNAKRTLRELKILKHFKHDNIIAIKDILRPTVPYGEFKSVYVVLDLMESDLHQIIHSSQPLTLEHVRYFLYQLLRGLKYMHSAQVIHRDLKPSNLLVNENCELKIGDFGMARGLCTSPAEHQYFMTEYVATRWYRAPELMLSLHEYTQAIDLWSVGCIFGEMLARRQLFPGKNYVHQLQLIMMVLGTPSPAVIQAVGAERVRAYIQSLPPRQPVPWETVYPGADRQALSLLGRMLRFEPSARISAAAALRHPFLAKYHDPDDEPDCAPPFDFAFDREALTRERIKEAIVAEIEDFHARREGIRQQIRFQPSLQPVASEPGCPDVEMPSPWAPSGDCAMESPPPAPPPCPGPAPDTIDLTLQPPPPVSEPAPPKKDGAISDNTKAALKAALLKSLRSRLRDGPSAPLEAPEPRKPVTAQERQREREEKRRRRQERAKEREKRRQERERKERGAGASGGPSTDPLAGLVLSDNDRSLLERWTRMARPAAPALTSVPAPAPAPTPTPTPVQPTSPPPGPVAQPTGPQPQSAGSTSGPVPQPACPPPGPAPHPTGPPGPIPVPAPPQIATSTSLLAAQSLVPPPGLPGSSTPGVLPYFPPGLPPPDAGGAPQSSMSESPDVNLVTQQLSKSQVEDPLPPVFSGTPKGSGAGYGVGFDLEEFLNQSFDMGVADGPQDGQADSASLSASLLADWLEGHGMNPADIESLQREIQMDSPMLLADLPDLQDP

[6] = target: Cyclin-dependent kinase 3 (Homo sapiens) (UniProt Q00526); assay: Selectivity interaction (KinomeScan (DiscoverX)) EUB0000595a CDK3; conditions: at 10 µM
Sequence of Cyclin-dependent kinase 3 (Homo sapiens) (Q00526 whole entry, looked up): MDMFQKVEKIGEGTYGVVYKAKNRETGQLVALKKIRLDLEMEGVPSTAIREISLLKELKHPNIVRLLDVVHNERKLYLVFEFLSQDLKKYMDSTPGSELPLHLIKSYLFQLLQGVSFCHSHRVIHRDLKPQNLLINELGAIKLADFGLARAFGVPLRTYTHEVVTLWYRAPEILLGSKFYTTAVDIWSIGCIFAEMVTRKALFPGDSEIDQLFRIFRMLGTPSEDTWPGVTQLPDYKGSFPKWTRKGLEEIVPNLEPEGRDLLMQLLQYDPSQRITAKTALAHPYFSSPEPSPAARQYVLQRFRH

[7] = target: SRSF protein kinase 2 (Homo sapiens) (UniProt P78362); assay: Selectivity interaction (KinomeScan (DiscoverX)) EUB0000045b SRPK2
Sequence of SRSF protein kinase 2 (Homo sapiens) (P78362 whole entry, looked up): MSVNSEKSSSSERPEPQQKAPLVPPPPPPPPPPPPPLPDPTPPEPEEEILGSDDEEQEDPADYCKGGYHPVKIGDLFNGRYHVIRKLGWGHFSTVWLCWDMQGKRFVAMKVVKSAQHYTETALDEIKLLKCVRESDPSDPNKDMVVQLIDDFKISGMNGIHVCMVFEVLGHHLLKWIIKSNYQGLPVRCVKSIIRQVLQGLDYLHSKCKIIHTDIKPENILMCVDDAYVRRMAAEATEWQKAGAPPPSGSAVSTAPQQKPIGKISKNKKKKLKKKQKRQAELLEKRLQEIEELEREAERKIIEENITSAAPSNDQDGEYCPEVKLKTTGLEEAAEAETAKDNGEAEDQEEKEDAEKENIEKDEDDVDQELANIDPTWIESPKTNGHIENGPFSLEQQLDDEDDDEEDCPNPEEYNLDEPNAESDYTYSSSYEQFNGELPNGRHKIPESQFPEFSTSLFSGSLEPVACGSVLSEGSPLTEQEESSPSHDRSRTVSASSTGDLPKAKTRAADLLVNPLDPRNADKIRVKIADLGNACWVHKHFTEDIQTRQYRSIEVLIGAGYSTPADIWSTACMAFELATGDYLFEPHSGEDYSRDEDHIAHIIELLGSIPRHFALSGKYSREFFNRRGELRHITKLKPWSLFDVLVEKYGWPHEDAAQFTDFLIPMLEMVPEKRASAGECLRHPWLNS

[8] = target: T3, Serine/threonine-protein kinase TNNI3K (Homo sapiens) (UniProt Q59H18); assay: Selectivity interaction (KinomeScan (DiscoverX)) EUB0000045b TNNI3K
T3 sequence (whole entry): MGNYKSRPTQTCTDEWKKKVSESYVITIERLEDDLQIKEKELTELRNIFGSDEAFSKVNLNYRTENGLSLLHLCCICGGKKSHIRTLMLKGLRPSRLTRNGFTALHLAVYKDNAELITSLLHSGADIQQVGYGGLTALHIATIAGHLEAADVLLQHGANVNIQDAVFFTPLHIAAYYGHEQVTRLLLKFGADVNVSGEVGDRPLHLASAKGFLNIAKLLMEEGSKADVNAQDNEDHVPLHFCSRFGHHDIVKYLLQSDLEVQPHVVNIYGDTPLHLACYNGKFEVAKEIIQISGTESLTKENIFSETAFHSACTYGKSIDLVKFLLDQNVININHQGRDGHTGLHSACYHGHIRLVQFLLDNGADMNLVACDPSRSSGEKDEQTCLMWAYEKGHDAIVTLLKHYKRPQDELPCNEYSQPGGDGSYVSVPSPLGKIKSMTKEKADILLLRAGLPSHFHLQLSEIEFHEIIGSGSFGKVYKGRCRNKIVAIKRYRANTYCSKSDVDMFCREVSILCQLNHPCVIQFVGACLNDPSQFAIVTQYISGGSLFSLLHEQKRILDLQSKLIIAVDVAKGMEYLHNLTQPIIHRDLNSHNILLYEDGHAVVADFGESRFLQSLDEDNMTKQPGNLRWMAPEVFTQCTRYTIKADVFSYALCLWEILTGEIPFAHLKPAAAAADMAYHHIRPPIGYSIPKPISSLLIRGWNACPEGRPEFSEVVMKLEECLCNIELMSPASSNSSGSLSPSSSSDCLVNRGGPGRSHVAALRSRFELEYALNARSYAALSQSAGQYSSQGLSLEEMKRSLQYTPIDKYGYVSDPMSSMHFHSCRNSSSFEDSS

[9] = target: Rho-associated protein kinase 1 (Homo sapiens) (UniProt Q13464); assay: Selectivity interaction (Kinase panel (literature)) EUB0001199aCl ROCK1; conditions: at 1 µM
Sequence of Rho-associated protein kinase 1 (Homo sapiens) (Q13464 2-1354 limits assumed): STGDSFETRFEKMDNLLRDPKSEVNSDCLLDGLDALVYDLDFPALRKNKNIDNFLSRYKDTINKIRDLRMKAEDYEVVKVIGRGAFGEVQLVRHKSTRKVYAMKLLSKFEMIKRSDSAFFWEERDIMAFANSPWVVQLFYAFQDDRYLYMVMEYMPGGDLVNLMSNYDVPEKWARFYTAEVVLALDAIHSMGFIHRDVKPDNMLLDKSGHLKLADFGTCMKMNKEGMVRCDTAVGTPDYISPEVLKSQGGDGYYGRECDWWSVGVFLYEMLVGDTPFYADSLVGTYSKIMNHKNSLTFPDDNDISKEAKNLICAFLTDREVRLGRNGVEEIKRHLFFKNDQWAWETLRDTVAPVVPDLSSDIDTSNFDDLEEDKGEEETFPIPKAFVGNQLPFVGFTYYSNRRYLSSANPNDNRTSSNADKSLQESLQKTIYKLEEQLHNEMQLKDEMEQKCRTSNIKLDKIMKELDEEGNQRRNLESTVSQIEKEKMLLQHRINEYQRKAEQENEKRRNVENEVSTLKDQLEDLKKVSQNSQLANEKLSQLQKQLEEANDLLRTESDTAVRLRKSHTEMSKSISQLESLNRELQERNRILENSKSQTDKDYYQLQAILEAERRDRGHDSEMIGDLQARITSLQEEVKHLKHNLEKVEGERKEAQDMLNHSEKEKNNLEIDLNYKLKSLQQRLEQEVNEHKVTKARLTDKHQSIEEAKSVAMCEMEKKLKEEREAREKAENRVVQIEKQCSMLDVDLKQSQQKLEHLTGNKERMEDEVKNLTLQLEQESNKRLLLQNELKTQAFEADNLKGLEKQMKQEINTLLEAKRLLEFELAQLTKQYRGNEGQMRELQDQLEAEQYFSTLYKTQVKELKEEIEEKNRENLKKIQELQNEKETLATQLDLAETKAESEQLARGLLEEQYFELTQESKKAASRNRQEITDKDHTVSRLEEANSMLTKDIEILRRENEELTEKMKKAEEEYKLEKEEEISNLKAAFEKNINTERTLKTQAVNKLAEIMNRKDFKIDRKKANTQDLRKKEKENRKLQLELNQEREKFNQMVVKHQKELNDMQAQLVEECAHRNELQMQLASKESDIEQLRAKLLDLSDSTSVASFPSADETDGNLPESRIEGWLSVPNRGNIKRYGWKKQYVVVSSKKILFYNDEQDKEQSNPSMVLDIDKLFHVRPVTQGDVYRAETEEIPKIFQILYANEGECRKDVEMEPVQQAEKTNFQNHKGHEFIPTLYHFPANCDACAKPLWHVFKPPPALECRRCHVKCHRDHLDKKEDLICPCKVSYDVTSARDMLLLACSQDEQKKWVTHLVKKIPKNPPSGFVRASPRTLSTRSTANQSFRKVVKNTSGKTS

[10] = target: Calcium/calmodulin-dependent protein kinase type II subunit beta (Homo sapiens) (UniProt Q13554); assay: Selectivity interaction (KinomeScan (DiscoverX)) EUB0000618a CAMK2B; conditions: at 10 µM
Sequence of Calcium/calmodulin-dependent protein kinase type II subunit beta (Homo sapiens) (Q13554 whole entry): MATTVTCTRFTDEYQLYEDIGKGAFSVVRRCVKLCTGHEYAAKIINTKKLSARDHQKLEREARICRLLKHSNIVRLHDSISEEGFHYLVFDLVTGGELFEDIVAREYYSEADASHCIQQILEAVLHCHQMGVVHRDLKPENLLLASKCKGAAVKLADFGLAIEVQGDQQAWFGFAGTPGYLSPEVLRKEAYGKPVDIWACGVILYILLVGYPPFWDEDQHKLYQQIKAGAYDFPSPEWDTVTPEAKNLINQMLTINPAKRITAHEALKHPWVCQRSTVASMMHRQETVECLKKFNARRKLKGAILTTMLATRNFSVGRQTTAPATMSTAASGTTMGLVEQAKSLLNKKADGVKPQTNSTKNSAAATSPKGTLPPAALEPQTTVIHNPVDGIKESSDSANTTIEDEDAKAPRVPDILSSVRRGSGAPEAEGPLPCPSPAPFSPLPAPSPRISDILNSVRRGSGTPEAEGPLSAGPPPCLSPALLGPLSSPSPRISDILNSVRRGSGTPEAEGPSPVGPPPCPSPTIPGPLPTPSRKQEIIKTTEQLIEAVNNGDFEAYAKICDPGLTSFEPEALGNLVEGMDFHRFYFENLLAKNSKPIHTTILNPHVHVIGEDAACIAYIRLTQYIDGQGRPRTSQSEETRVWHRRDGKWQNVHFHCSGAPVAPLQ

[11] = target: T4, Serine/threonine-protein kinase Chk1 (Homo sapiens) (UniProt O14757); assay: Selectivity interaction (Kinase screening (Upstate/Millipore)) EUB0000604a CHEK1
T4 sequence (whole entry): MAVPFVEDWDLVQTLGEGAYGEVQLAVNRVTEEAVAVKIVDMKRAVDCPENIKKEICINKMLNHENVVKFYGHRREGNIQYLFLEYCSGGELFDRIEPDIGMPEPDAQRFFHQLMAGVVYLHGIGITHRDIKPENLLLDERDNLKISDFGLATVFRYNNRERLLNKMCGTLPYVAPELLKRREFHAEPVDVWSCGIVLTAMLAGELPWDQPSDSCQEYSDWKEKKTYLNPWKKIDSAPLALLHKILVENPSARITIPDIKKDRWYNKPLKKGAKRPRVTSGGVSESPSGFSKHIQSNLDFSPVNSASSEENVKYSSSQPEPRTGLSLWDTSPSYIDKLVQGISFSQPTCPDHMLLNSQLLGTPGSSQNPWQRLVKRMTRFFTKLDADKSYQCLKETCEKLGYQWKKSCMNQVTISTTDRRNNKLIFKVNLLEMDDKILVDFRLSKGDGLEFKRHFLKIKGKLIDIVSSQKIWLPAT

Which % of control [1] does the source give for Cn1cc(-n2cnc3c(NCc4nc5cc(Cl)c(Cl)cc5[nH]4)nc(N4CCOCC4)nc32)cn1 here?
The % of control was 5.11%.

How did the % of inhibition [2] turn out when CC[C@@H]1[C@H](F)C(=O)N[C@@H]1COc1nccc2cc(C(N)=O)c(OC)cc12 [ZIMLOVISERTIB] was run?
Its % of inhibition is 0.439%.

How did the % of control [3] turn out when COc1cc(Nc2nc(C)cc(-c3cnn4nc(OC)ccc34)n2)cc(C(F)(F)F)c1 was run?
The % of control was 100%.

For Cc1cc(C)cc([C@@H]2c3cc(C)ccc3NC(=O)CN2C(=O)c2ccc(Br)s2)c1, which % of inhibition [4] is on record?
Its % of inhibition is 8%.

For Cc1cc(F)c(C(=O)Nc2cccc(-c3nncn3C(C)C)n2)cc1-n1cnc(C2CC2)c1, which % of control [5] is on record?
The % of control was 100%.

COCC(=O)NC/C=C/c1ccc2ncnc(Nc3ccc(Oc4ccc(C)nc4)c(C)c3)c2c1 [CP-724714] was tested. Which % of control [6] did it give?
Its % of control is 100%.

What does the source list for C=CC(=O)Nc1cc(-n2c(=O)ccc3cnc4ccc(-c5ccc(NS(C)(=O)=O)cc5)cc4c32)ccc1C?
% of control ([7]; at 1 µM): 100%; % of control ([7]; at 10 µM): 81%; % of control ([8]; at 1 µM): 100%; % of control ([8]; at 10 µM): 77%

Which % of inhibition [9] does the source give for CN1Cc2nccc(-c3cn(C)nc3-c3ccc(F)cc3)c2C1=O here?
The % of inhibition was -3%.

Which % of control [10] does the source give for O[C@H]1CC[C@H](Nc2ncc3nc(Nc4c(F)cc(F)cc4F)n([C@H]4CCOC4)c3n2)CC1 here?
The % of control was 100%.

How did the % of inhibition [11] turn out when Cc1cnc(Nc2ccc(F)cc2Cl)nc1-c1c[nH]c(C(=O)N[C@H](CO)c2cccc(Cl)c2)c1 was run?
Its % of inhibition is 40%.
